# Results taken from US20100081690A1, “OXAZOLE DERIVATIVES AS POSITIVE ALLOSTERIC MODULATORS OF METABOTROPIC GLUTAMATE RECEPTORS” (ADDEX PHARMA SA, priority 2006, published 2010).
# What was measured:
# rat mGluR5 = target: T1, rat mGluR5 (Rattus norvegicus, UniProt P31424); assay: mGluR5 assay on HEK-expressing rat mGluR5 (fluorescent cell based Ca2+ mobilization); conditions: HEK-293 cells stably expressing rat mGluR5, no co-addition of glutamate; mean of at least three independent experiments in duplicate; read-out: Ca2+ Flux (mean EC50)
# T1 construct: expressed in transfected cells
# T1 sequence (P31424 21-1171 isoform P31424-2 limits assumed): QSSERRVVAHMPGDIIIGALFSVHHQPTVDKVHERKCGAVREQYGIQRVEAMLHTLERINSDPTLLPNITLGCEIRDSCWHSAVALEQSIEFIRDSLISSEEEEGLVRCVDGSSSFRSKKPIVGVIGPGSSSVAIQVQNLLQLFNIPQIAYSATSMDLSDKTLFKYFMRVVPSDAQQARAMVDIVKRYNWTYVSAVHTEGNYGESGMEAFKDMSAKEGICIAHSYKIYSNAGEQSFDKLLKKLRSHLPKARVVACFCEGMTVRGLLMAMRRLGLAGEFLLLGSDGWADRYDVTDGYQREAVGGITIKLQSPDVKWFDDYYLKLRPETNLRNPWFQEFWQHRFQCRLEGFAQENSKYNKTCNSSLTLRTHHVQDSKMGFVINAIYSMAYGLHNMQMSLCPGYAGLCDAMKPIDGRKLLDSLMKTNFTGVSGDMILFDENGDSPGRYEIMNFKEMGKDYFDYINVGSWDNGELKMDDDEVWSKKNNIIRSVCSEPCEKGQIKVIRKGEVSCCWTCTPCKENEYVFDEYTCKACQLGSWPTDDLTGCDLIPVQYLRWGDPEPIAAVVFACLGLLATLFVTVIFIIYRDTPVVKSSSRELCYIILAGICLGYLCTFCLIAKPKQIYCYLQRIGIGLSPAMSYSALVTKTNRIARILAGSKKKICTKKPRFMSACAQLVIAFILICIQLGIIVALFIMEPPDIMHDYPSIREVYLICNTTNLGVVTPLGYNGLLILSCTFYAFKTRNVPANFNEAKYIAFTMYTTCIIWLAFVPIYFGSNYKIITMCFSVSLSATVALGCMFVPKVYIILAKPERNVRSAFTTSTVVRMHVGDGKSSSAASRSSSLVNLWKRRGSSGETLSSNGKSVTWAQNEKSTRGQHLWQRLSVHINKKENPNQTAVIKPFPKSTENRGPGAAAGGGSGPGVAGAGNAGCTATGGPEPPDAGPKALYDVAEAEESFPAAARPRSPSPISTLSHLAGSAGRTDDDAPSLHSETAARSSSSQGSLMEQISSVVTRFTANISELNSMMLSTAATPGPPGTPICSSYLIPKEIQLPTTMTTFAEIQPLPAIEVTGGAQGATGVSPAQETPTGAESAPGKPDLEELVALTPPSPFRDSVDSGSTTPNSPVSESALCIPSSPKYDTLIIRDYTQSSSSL
# Experimental: Positive functional expression of HEK-293 cells stably expressing rat mGluR5 receptor was determined by measuring intracellular Ca^2+ changes using a Fluorometric Imaging Plate Reader (FLIPR, Molecular Devices, Sunnyvale, Calif.) in response to glutamate or selective known mGluR5 agonists and antagonists. Rat mGluR5RT-PCR products in HEK-293 cells were sequenced and found 100% identical to rat mGluR5Genbank reference sequence (NM_017012). HEK-293 cells expressing rmGluR5 were maintained in media containing DMEM, dialyzed Fetal Bovine Serum (10%), Glutamax™ (2 mM), Penicillin (100 units/ml), Streptomycin (100 μg/ml), Geneticin (100 μg/ml) and Hygromycin-B (40 μg/ml) at 37° C./5% CO2.
# After one day of incubation, cells were washed with assay buffer containing: 142 mM NaCl, 6 mM KCl, 1 mM […], 1 mM CaCl2, 20 mM HEPES, 1 g/L glucose, 0.125 mM sulfinpyrazone, pH 7.4. After 60 min of loading with 4 uM Fluo-4 (TefLabs, Austin, Tex.), the cells were washed three times with 50 μl of PBS Buffer and resuspended in 45 μl of assay Buffer. The plates were then transferred to a Fluorometric Imaging Plate Reader (FLIPR, Molecular Devices, Sunnyvale, Calif.) for the assessment of intracellular calcium flux. After monitoring the baseline fluorescence for 10 seconds, increasing concentrations of representative compound (from 0.01 to 60 μM) of the present invention diluted in Assay Buffer (15 μl of 4× dilutions) was added to the cell. The final DMSO concentration in the assay was 0.3%. In each experiment, fluorescence was then monitored as a function of time for 3 minutes and the data analyzed using Microsoft Excel and GraphPad Prism. Each data point was also measured two times.
# Under these experimental conditions, this HEK-rat mGluR5 cell line is able to directly detect positive allosteric modulators without the need of co-addition of glutamate or mGluR5 agonist.
# The concentration-response curves of representative compounds of the present invention were generated using the Prism GraphPad software (Graph Pad Inc, San Diego, USA). The curves were fitted to a four-parameter logistic equation:
# (Y=Bottom+(Top-Bottom)/(1+10̂((Log EC50−X)*Hill Slope)
# allowing determination of EC50 values.
# The Table 1 below represents the mean EC50 obtained from at least three independent experiments of selected molecules performed in duplicate.
# mGluR5 = target: T2, mGluR5 (Rattus norvegicus, UniProt P31424); assay: mGluR5 binding assay ([3H]-MPEP, rat brain membranes); conditions: competition with 3 nM [3H]-MPEP, rat cortical membranes, 1 h at 4° C.
# T2 construct: positive allosteric modulators of mGluR5 receptors in native preparations; endogenous in cells; host or cells: primary cortical astrocytes from Sprague-Dawley rat embryos (E16-19)
# T2 sequence (P31424 21-1203): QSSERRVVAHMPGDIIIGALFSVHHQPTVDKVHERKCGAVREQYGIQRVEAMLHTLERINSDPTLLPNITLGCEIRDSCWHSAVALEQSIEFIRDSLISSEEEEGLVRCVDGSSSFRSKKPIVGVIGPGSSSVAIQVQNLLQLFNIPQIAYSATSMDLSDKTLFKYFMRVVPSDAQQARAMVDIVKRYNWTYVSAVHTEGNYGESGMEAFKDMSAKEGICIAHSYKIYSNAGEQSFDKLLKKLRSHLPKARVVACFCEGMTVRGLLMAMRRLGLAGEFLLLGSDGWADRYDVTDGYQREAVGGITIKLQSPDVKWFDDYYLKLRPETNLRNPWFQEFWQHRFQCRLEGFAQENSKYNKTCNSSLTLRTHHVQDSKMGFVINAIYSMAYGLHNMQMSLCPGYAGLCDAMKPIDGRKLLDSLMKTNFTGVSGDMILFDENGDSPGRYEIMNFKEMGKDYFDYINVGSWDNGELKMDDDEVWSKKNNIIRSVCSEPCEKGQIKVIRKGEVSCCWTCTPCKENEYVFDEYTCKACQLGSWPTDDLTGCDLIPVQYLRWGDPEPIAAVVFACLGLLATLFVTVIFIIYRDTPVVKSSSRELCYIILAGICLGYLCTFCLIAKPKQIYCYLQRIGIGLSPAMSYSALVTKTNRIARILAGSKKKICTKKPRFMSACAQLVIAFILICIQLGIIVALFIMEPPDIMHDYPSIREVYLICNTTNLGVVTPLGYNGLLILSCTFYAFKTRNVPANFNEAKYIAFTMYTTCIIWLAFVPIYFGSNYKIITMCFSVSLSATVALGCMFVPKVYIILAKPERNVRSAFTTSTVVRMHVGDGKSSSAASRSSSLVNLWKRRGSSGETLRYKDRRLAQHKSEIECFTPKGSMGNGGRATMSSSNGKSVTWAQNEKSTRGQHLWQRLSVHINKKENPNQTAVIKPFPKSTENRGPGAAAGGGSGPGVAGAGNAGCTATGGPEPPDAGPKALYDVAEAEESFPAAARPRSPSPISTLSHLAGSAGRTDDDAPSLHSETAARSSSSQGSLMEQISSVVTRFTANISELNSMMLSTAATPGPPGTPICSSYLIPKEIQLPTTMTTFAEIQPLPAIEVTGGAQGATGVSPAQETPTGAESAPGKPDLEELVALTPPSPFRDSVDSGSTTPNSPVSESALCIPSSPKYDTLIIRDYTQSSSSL
# From the text: Activity of compounds of the invention was examined following a radioligand binding technique using whole rat brain and tritiated 2-methyl-6-(phenylethynyl)-pyridine ([^3H]-MPEP) as a ligand following similar methods than those described in Gasparini et al. (2002) Bioorg. Med. Chem. Lett. 12:407-409 and in Anderson et al. (2002) J. Pharmacol. Exp. Ther. 303 (3) 1044-1051.
# Cortices were dissected out from brains of 200-300 g Sprague-Dawley rats (Charles River Laboratories, L'Arbresle, France). Tissues were homogenized in 10 volumes (vol/wt) of ice-cold 50 mM Hepes-NaOH (pH 7.4) using a Polytron disrupter (Kinematica AG, Luzern, Switzerland) and centrifuged for 30 min at 40,000 g. (4° C.). […] Protein concentration was determined by the Bradford method (Bio-Rad protein assay, Reinach, Switzerland) with bovine serum albumin as standard.
# Membranes were thawed and resuspended in binding buffer containing 20 mM HEPES-NaOH, 3 mM MgCl2, 3 mM CaCl2, 100 mM NaCl, pH 7.4. […] Radioactivity was determined by liquid scintillation spectrometry using a 96-well plate reader (TopCount, Perkin-Elmer, Downers Grove, USA).
# The inhibition curves were generated using the Prism GraphPad program (Graph Pad Software Inc, San Diego, USA). […] The mean of IC50 obtained from at least three independent experiments of selected molecules performed in duplicate were calculated.
smiles,measurement,setting,value
"O=C(c1ccc(F)cc1)N1CCC[C@H](c2nc(-c3cc(F)c[nH]3)co2)C1 [Example 1, (4-Fluoro-phenyl)-{(S)-3-[4-(4-fluoro-1H-pyrrol-2-yl)-oxazol-2-yl]-piperidin-1-yl}-methanone]",melting point,,136 °C
same,EC50,rat mGluR5,< 1 µM
same,IC50,mGluR5,< 10 µM
